Test results: patent publication US10785978B2, “Control and repellency of biting flies, house flies, ticks, ants, fleas, biting midges, cockroaches, spiders and stink bugs” (priority 2012, dated 2020)

Columns and labels:
Assay type in all cases: in vivo
[1] = tested on: Brown Dog Ticks, Rhipicephalus sanguineus; assay: Brown Dog tick repellency on vertical filter paper strips; conditions: for ticks repelled: concentration not given
Method: Control against Brown Dog ticks was determined in the following protocol. Strips of filter paper, 1″ by 3″, were placed on a sheet of aluminum foil treated with 1 ml each of the test samples and allowed to dry. The end of each treated strip was stapled to an untreated filter paper strip of the same dimensions. The stapled strips were suspended in a vertical position above a tray, with the treated half attached to a horizontal glass rod by a metal clip. The untreated half was lowered when the strip is vertically positioned. Brown Dog Ticks, Rhipicephalus sanguineus, mixed sexes, were purchased from a supplier. Five replicates of five ticks for each treatment regimen plus five additional replicates for the control were employed. Ticks shipped to the test site were given at least one day to acclimate to “shipping stress” before they are used for testing. Those tick specimens which appeared sluggish or moribund were not used. Suitable ticks were removed from their containers and allowed to quest on the free end of the test strip. Once present on the strip they were watched as they crawled up the strip until they contacted the treated paper. If the tick, once in contact with the treated zone, either turned around, stopped without proceeding further, or dropped off, the tick is classified as repelled. If it continued to crawl onto the treated strip, even after it stopped briefly, that tick was classified as not repelled. A maximum observation time of 1 minute per replicate was allowed for ticks to respond after reaching the treated area, but during the test, if more time was needed, the maximum observation time may have been adjusted at the discretion of the study coordinator. At the end of the observation time, the number of ticks repelled was recorded. Tick behavior was recorded when applicable, such as whether increased number of affected or repelled ticks occurred in successive replicates over time. After the completion of each treatment parameter, the testing chamber was ventilated for five minutes by turning on the exhaust fan and opening the door leading into the chamber. Ticks were used only once. Average number of ticks displaying each behavior category were calculated and compared to the control replicates.

house flies = assay: House fly repellency on treated filter paper food trays in cages; conditions: 5% in isopropyl alcohol; over 6 hours
Method: The bottom of each cage was lined with brown craft paper and divided into 4 equal quadrants. Each quadrant housed a makeshift filter paper food tray. Two of the four filter papers were treated with repellent and two treated with isopropanol. Control cages contained filter papers that were treated with 4 filter papers of isopropanol only. The number of flies resting on filter paper per quadrant was recorded every 30 minutes for a total of 6 hours. Cages were rotated to eliminate positional bias. […] Each of the test samples were diluted in isopropyl alcohol.

Pharaoh ants = assay: Pharaoh ant behaviour at treated-untreated interface on poster board; conditions: 50% in acetone; 5 minutes after release
Method: Pharaoh ants were tested using the following protocol. The side of a 17″×23″ rectangular sheet of poster board was sprayed with the test sample or acetone, except for a region within a 6″ circle. The treated poster board was allowed to dry. Five worker ants were placed in the center of the 6″ untreated circle and allowed to wander outside the circle onto the treated surface. The behavior of the ants at the treated-untreated interface was recorded for 5 minutes after release. Test compounds were diluted in acetone.

Brown Dog Ticks = assay: Second repellent assay against Brown Dog Ticks; conditions: 15% in isopropyl alcohol
Method: Also, a second repellent assay was used to evaluate six test samples against Brown Dog Ticks. Five replicates of five ticks were given the opportunity to quest onto a vertical strip of untreated filter paper and then allowed to move upward toward a second vertical strip of filter paper treated with one of the six candidate repellents or DEET®. In the control situation, the second strip was treated with isopropanol. They were then observed for directional or behavioral changes caused in response to contact with the repellent. Ticks were recorded as either repelled or not repelled. Compounds were diluted in isopropyl alcohol. The percentages of ticks repelled are shown below in Table 6.

sand flies P. papatasi = assay: Sand fly bite test on treated human skin with K&D module; conditions: for percent biting, Treatment level 5%: 5% compound in isopropyl alcohol on human skin; for sand flies repelled: at 5%
Method: Control against sand flies was determined by the following protocol as generally described in J. Med. Entomol. 43 (6), 1248-1252 (2006). Volunteers wearing short pants were seated. Using a skin-marking template and a washable-ink marker, skin areas represented by 3- by 4-cm floor opening of six cells of a K&D module were outlined on the outer, top and inner thigh position of each leg of the volunteers. The six treated cell rectangles each represented a random block, and each volunteer had three blocks on each of two thighs. All treatments against the sand flies P. papatasi, were pipetted onto a 4- by 5-cm rectangular area (so the area of skin covered by a treatment exceeded the template marks by 0.5 cm in every direction) of the subjects' skin with 55 ul of isopropyl alcohol/treatment containing 10% or 5% compound/ul isopropyl alcohol. Treating a slightly larger area ensured that the areas beneath each K&D module contained only treated skin. Skin treated with isopropyl alcohol alone served as control. In all tests adjacent cells of the K&D module were supplied with ten sand flies. The sand fly charged K&D module was positioned over the treated skin areas and the trap doors of the K&D module above the areas were opened. After a five minute skin exposure the trap doors were closed. The number of sand fly bites was recorded for each cell. The percent biting is the percent compared to the biting for the control which was taken as 100%.

[2] = tested on: brown marmorated stink bugs (BMSB); assay: Brown marmorated stink bug repellency, treated vs. untreated filter paper arena
Method: The two semi-circle filter papers were aligned together to completely cover the bottom of the test arena. Control arenas were also set up in a similar fashion except both were treated with acetone. Five replicates of 5 BMSB were then introduced into both the treated and control arenas. By releasing them in the center of the arena, the BMSB were presented with a choice of treated vs. untreated substrate (or untreated vs. untreated in the control arenas). The repellency of the BMSB was recorded at 24 hours post-treatment.

[3] = five minute exposure, percent of control biting taken as 100%

SMILES	Mean % repelled ([1]; 7.5% in isopropyl alcohol) [%]	Mean % repelled ([1]; Neat) [%]	ticks repelled [1] [%]	Overall % Repellency (house flies) [%]	% crossed without stopping (Pharaoh ants) [%]	% slowed, but crossed (Pharaoh ants) [%]	% stopped at interface (Pharaoh ants) [%]	Mean % repelled (Brown Dog Ticks) [%]	percent biting, Treatment level 5% (sand flies P. papatasi; [3])	percent biting, Treatment level-10% (sand flies P. papatasi; 10% compound in isopropyl alcohol on human skin, five minute exposure, percent of control biting taken as 100%) [%]	sand flies repelled (sand flies P. papatasi) [%]	% Repellency at 24 hours ([2]; 2.5% in isopropyl alcohol) [%]	% Repellency at 24 hours ([2]; 5% in isopropyl alcohol) [%]
CCC(C)=CCCC(C)=CCC1CCCC1=O (stereo not shown) [Methyl apritone, methyl apritone]	100	100	100	45	66	2	66	100	9.9%^	0	90.1		
CCCCCC1C(=O)CCC1CC(=O)OC (stereo not shown) [Methyl dihydrojasmonate, methyl dihydrojasmonate]		100	100	52	50	20	32	100	0%		100	74	100
